pKi: −log10 of the molar value.
Biological target: T1, histamine 3 receptor (H3R) (Homo sapiens, UniProt Q9Y5N1)
T1 construct: expressed in transfected cells; host or cells: CHO cells (HR3-CHO cell line), membrane preparation
Assay: Binding assay with 3H-(R)α-methylhistamine (competition binding, membranes of the human HR3-CHO cell line)
Details: membrane of human HR3-CHO cell line; 3H(R)α-Methylhistamine 1 nM; Ki calculated from IC50 by Cheng-Prusoff equation
Method: Binding Assay with ^3H—(R)α-methylhistamine
Saturation binding experiments were performed using HR3-CHO membranes prepared as described in Takahashi, K, Tokita, S., Kotani, H. (2003) J. Pharmacol. Exp. Therapeutics 307, 213-218.
An appropriate amount of membrane (60 to 80 μg protein/well) was incubated with increasing concentrations of ^3H(R)α-Methylhistamine di-hydrochloride (0.10 to 10 nM). Non specific binding was determined using a 200 fold excess of cold (R)α-Methylhistamine dihydrobromide (500 nM final concentration). The incubation was carried out at room temperature (in deep-well plates shaking for three hours). The final volume in each well was 250 μl. The incubation was followed by rapid filtration on GF/B filters (pre-soaked with 100 μl of 0.5% PEI in Tris 50 mM shaking at 200 rpm for two hours). […] After harvesting, the plates were dried at 55° C. for 60 min, then we added scintillation fluid (Microscint 40, 40 microl in each well) and the amount of radioactivity on the filter was determined in Packard top-counter after shaking the plates for two hours at 200 rpm at room temperature. […]
All compounds were tested at a single concentration in duplicates. […] Ki's were calculated from IC50 based on Cheng-Prusoff equation (Cheng, Y, Prusoff, W H (1973) Biochem Pharmacol 22, 3099-3108).

T1 sequence (Q9Y5N1 whole entry): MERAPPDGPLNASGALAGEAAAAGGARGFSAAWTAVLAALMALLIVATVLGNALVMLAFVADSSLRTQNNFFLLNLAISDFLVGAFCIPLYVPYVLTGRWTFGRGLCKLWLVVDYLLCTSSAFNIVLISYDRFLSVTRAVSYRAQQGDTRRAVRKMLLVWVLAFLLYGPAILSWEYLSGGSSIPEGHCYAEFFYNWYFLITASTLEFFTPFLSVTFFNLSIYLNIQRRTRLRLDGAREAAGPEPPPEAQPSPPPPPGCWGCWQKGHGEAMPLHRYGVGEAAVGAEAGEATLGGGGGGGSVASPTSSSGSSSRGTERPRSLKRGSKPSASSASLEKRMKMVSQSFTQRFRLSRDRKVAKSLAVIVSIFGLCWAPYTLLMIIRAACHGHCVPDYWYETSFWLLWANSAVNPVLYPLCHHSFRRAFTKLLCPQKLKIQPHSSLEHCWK

Row | SMILES | pKi
1 | CC(C)N1CC[C@H](Oc2ccc3[nH]c(C(=O)N4CCS(=O)(=O)CC4)cc3c2)C1 [Example 4, (1,1-Dioxo-thiomorpholin-4-yl)-[5-(1-isopropyl-pyrrolidin-3S-yloxy)-1H-indol-2-yl]-methanone] | 7.31
2 | CC(C)N1CCC(Oc2ccc3c(c2)cc(C(=O)N2CCS(=O)(=O)CC2)n3CC(F)(F)F)CC1 [Example 1, (1,1-Dioxo-thiomorpholin-4-yl)-[5-(1-isopropyl-piperidin-4-yloxy)-1-(2,2,2-trifluoro-ethyl)-1H-indol-2-yl]-methanone] | 8.52
